Experimental data reported in paper PMC11605732, “In vitro screening of UGT2B10 in silico prioritized putative ligands from drugs used in the pediatric hematopoietic stem cell transplantation setting” (Pharmacology Research & Perspectives, 2024).
Read-outs that look alike come from different tables or passages of the source.

Columns and labels:
UGT2B10 [1] = biological target: T1, UGT2B10 (Homo sapiens, UniProt P36537); experiment: inhibition of cotinine N-glucuronidation at […], UHPLC-MS/MS; format: biochemical; details: read-out: % inhibition at 10 μM
T1 construct: recombinant UGT2B10
T1 sequence (P36537 24-528): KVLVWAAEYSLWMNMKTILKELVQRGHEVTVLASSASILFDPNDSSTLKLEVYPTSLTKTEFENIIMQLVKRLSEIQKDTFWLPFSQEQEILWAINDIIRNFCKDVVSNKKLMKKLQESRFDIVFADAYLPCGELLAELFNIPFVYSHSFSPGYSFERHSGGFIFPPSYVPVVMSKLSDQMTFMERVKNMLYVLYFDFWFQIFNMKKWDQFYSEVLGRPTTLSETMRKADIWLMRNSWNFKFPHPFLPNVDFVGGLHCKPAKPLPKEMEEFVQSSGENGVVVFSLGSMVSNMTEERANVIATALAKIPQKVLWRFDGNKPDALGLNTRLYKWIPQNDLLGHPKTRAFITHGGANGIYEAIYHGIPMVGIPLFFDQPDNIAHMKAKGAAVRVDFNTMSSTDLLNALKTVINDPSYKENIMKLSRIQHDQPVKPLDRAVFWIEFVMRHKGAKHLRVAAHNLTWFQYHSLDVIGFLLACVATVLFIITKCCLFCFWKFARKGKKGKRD

UGT1A6 = biological target: T2, UGT1A6 (Homo sapiens, UniProt P19224); experiment: glucuronide formation by recombinant enzyme, UHPLC-MS/MS; format: biochemical
T2 construct: recombinant UGT1A6
T2 sequence (P19224 27-532): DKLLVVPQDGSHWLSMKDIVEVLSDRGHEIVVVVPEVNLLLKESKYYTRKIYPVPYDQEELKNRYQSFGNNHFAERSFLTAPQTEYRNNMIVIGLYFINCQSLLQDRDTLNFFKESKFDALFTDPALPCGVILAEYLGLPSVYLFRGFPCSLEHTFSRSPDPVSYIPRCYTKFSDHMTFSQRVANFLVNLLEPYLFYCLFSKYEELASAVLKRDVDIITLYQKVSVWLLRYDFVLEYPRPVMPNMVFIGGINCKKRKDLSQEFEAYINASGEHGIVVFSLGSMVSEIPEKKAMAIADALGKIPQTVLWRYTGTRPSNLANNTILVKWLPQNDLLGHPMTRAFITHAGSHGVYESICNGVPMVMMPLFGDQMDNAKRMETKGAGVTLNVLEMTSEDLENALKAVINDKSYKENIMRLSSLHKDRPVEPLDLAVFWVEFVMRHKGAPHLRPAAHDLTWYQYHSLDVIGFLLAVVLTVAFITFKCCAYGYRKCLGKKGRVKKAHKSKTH

UGT2B10 [2] = biological target: T1, UGT2B10; experiment: inhibition of cotinine N-glucuronidation by recombinant enzyme, UHPLC-MS/MS; format: biochemical
purified protein = substrate: CN1C(=O)CC[C@H]1c1cccnc1; experiment: purified protein; details: UDPGA; MgCl2

In the case of `CN(C)CCC=C1c2ccccc2CCc2ccccc21` [AMT, amitriptyline], the inhibition at 10 µM (UGT2B10 [1]) is reported as 97.5%.

`CC(=O)Nc1ccc(O)cc1` [APAP, acetaminophen] was tested, and the “glucuronide formation by recombinant enzyme, UHPLC-MS/MS” value (UGT1A6) was “incubations of APAP and MPA with UGT1A6 produced APAP‐glucuronide and MPA‐ß‐D‐glucuronide, respectively”.

`O=C1Nc2ccc(Cl)cc2C(c2ccccc2Cl)=NC1O` (stereo not drawn) [LOR, lorazepam] gave an IC50 (UGT2B10 [2]) of 0.01 µM.

With `COc1c(C)c2c(c(O)c1C/C=C(\C)CCC(=O)O)C(=O)OC2` [MPA, mycophenolic acid] the IC50 (UGT2B10 [2]; read-out: IC50) was 380 µM and the “glucuronide formation by recombinant enzyme, UHPLC-MS/MS” value (UGT1A6) was “incubations of APAP and MPA with UGT1A6 produced APAP‐glucuronide and MPA‐ß‐D‐glucuronide, respectively”.

B1: UGT2B10 (Homo sapiens) (protein)
chain: T1 sequence (P36537 24-528)
B1 gave a Km (purified protein) of 4.043 mM.
